Tested on: 276233-004-R-J1-PDC spheroids with HUVEC/MSC, viability
Test: Anticancer human tumor 276233-004-R-J1-PDC patient-derived colon adenocarcinoma cell line growth inhibition [TAK]
Conditions: for IC50: curve of first compound; for viability, T/C: stronger effect = lower value
Source text: Combinatorial screen of targeted agents with TAK-243 and ipatasertib in multi-cell type tumor spheroids
A high-throughput screen of multi-cell type tumor spheroids was designed to identify active combinations of targeted small molecules and TAK-243 or ipatasertib. Complex spheroids include a stromal component modeled by human endothelial cells (HUVEC) and fibroblasts modeled by human mesenchymal stem cells (MSCs). The concentration ranges selected for each drug and investigational agent were based upon clinically achievable concentrations if the clinical Cmax of the agent was known.
Compounds. The drugs and investigational agents: TAK-243 (785004), ipatasertib (767898), everolimus (733504), selumetinib (741078), bortezomib (756655), trametinib (758246), ixazomib (758254), vemurafenib (761431), dabrafenib (764134), sapanisertib (764658), alpelisib (765974), and copanlisib (816437), were obtained from the National Cancer Institute (NCI) Developmental Therapeutics Program Chemical Repository. The FDA-approved anticancer drug set is available from the NCI Developmental Therapeutics Program. […] The stock solutions were prepared in dimethyl sulfoxide (DMSO, Sigma-Aldrich, St. Louis, MO, cat. D2650) at 800-fold the tested concentration and stored at -70 degrees C prior to their use. All drugs and investigational agents were tested over a range starting from a high concentration at or near the clinical Cmax and decreasing in half-log increments. If the clinical Cmax for an agent had not been determined, the highest concentration tested was 10 microM.
NCI60 Cell Culture. NCI60 cell lines were obtained from the NCI Developmental Therapeutics Program Tumor Repository. For each lot of cells, the Repository performed Applied Biosystems AmpFLSTR Identifiler testing with PCR amplification to confirm consistency with the published Identifier STR profile for each cell line. Cells were kept in continuous culture for no more than 20 passages. The optimal seeding densities for each of the cell lines at each time point assessed were determined prior to performing the concentration response studies. Briefly, the NCI60 human tumor lines were grown as monolayers in RPMI 1640 medium supplemented with 10% FBS and 2 mmol/L L-glutamine.
An additional 2 lines were from the NCI60 cell line panel including melanomas, MALME-3M and SK-MEL-2. Pooled donor human umbilical vein endothelial cells (HUVEC, Lonza, cat. CC-2519) and human mesenchymal stem cells (hMSC, Lonza, cat. PT-2501) were purchased from Lonza (Walkersville, MD).
PDMR cell lines were grown in complete medium (DC medium): Dulbecco's modified Eagle's medium (DMEM)/F12 supplemented with 5% fetal bovine serum (FBS), 2 mM L-glutamine, 100 U/mL penicillin and 100 µg/ml streptomycin, 0.4 µg/ml hydrocortisone, 10 ng/ml epidermal growth factor (EGF) recombinant human protein, 24 µg/mL adenine, and 0.1 mg/mL primocin. During culture from frozen stock vials, PDMR cells were cultured in the same medium containing 10 µM Y-27632 (see Table 3). The PDCs were cultured in complete DMEM/F12 media without 10 microM Y-27632 dihydrochloride for at least two passages prior to the screen. The pooled donor HUVEC and hMSC were cultured in endothelial cell growth medium 2 (PromoCell, Heidelberg, Germany, cat. C-22011) and mesenchymal stem cell growth medium 2 (PromoCell, cat. C-28009), respectively. For all experiments, HUVEC and hMSC were used at passages </=5.
For the pre-screen, cell seeding densities were determined from a titration spanning the range from 5,000 to 313 cells per well. The mct-spheroids including 60% malignant cells, 25% HUVEC and 15% MSC dispensed as a mixture into U-bottom Ultra-Low Attachment 384-well plates (Corning, NY)
High-throughput Drug Combination Screening.
Prior to their inoculation into 384-well plates, malignant cells, HUVEC, and hMSC were removed from T flasks using TrypLE express (Thermo Fisher Scientific, cat. 12605036) and harvested by centrifugation for 5 min at 233 x g. […]
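Also: spheroids exposed to drugs for seven days before the viability read.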

Work on Cn1cnc2c(F)c(Nc3ccc(Br)cc3Cl)c(C(=O)NOCCO)cc21 + CC(C)NCC(C(=O)N1CCN(c2ncnc3c2C(C)CC3O)CC1)c1ccc(Cl)cc1 yielded an IC50 (second compound 0.3 µM) of 0.462 µM, an IC50 (second compound 0.949 µM) of 0.361 µM and an IC50 (second compound 3 µM) of 0.145 µM. The IC50 (second compound 9.49 µM) was 0.0638 µM, the IC50 (second compound 30 µM) was 0.00949 µM and the viability, T/C (second compound 0.3 µM, first compound 0.00949 µM) was 79.5%. The viability, T/C (second compound 0.3 µM, first compound 0.03 µM) was 82.8%, the viability, T/C (second compound 0.3 µM, first compound 0.0949 µM) was 65.4% and the viability, T/C (second compound 0.3 µM, first compound 0.3 µM) was 52%. The viability, T/C (second compound 0.3 µM, first compound 0.949 µM) was 49.8%, the viability, T/C (second compound 0.3 µM, first compound 3 µM) was 38.5% and the viability, T/C (second compound 0.949 µM, first compound 0.00949 µM) was 73.6%. For the same compound, the viability, T/C (second compound 0.949 µM, first compound 0.03 µM) was 68.5%, the viability, T/C (second compound 0.949 µM, first compound 0.0949 µM) was 57.9% and the viability, T/C (second compound 0.949 µM, first compound 0.3 µM) was 52.2%. For the same compound, the viability, T/C (second compound 0.949 µM, first compound 0.949 µM) was 43.1%, the viability, T/C (second compound 0.949 µM, first compound 3 µM) was 33.3% and the viability, T/C (second compound 3 µM, first compound 0.00949 µM) was 67.2%. It also gave a viability, T/C (second compound 3 µM, first compound 0.03 µM) of 61.1%, a viability, T/C (second compound 3 µM, first compound 0.0949 µM) of 54.4% and a viability, T/C (second compound 3 µM, first compound 0.3 µM) of 42%. It also gave a viability, T/C (second compound 3 µM, first compound 0.949 µM) of 39.7%, a viability, T/C (second compound 3 µM, first compound 3 µM) of 31.4% and a viability, T/C (second compound 9.49 µM, first compound 0.00949 µM) of 64%. The viability, T/C (second compound 9.49 µM, first compound 0.03 µM) was 57.1%, the viability, T/C (second compound 9.49 µM, first compound 0.0949 µM) was 45.6% and the viability, T/C (second compound 9.49 µM, first compound 0.3 µM) was 40.4%. It also gave a viability, T/C (second compound 9.49 µM, first compound 0.949 µM) of 32.7%, a viability, T/C (second compound 9.49 µM, first compound 3 µM) of 28.9% and a viability, T/C (second compound 30 µM, first compound 0.00949 µM) of 50.1%. It also gave a viability, T/C (second compound 30 µM, first compound 0.03 µM) of 45.2%, a viability, T/C (second compound 30 µM, first compound 0.0949 µM) of 42.5% and a viability, T/C (second compound 30 µM, first compound 0.3 µM) of 52%. It also gave a viability, T/C (second compound 30 µM, first compound 0.949 µM) of 28.9% and a viability, T/C (second compound 30 µM, first compound 3 µM) of 33.1%.

Reference: PubChem BioAssay AID2060359 (Molecular Pharmacology Branch, DTP, NCI, 2025)
